Each block holds one compound with its values, some of them ahead of it.
What was measured:
human KHK-C = human KHK-C (Homo sapiens (Human), UniProt P50053); assay: KHK Biochemical Assay (IC50), ADP-Glo, KHK-C; details: average of at least two separate assays
Outline: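 His-tagged enzyme expressed in BL21 (DE3), Ni-NTA purified. Compounds, serially diluted 1:3 in DMSO, pre-incubated 30 min with enzyme in 50 mM Hepes pH 7.4, 140 mM KCl, 5 mM MgCl2, 0.01% Triton-X, then ATP and fructose added; 4 h at room temperature. ADP formation read by ADP-Glo luminescence.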

[1] = target: KHK-C expressed in NRK-52E cells (Homo sapiens (Human), UniProt P50053); assay: KHK-C Cell-based Assay (EC50), NRK CTG, fructose-mediated ATP-depletion
KHK-C expressed in NRK-52E cells, sequence (P50053 whole entry): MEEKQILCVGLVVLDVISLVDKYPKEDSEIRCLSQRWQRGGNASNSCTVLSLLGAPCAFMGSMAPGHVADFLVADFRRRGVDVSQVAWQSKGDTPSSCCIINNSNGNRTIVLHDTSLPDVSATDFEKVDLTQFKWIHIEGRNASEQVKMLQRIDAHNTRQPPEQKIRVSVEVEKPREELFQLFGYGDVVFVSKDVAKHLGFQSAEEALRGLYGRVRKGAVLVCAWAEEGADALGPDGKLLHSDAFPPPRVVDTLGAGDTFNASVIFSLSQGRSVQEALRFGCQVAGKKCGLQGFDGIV

human KHK-C, sequence (P50053 whole entry): as above

Compound: C[C@H]1[C@H](O)CN1c1nc2c(c(-c3ccc(CNS(C)(=O)=O)cc3)n1)CCC2 [Example 195, N-[[4-[2-[(2S,3R)-3-hydroxy-2-methyl-azetidin-1-yl]-6,7-dihydro-5H-cyclopenta[d]pyrimidin-4-yl]phenyl]methyl]methanesulfonamide]
IC50 (human KHK-C; ADP-Glo): 58.6 nM
EC50 [1]: 431 nM

Compound: C[C@H]1CCN1c1nc2c(c(-c3ccncn3)n1)CCC2 [Example 393, 2-[(2S)-2-methylazetidin-1-yl]-4-pyrimidin-4-yl-6,7-dihydro-5H-cyclopenta[d]pyrimidine]
IC50 (human KHK-C): 219 nM
EC50 [1]: 403 nM

Compound: C[C@H]1CCN1c1nc2c(c(-c3nccn3C)n1)CCC2 [Example 394, 2-[(2S)-2-methylazetidin-1-yl]-4-(1-methylimidazol-2-yl)-6,7-dihydro-5H-cyclopenta[d]pyrimidine]
IC50 (human KHK-C): 172 nM
EC50 [1]: 785 nM

Compound: C[C@H]1CCN1c1nc2c(c(-c3cccc(C4(O)CS(=O)(=O)C4)c3)n1)CCC2 [Example 397, (S)-3-hydroxy-3-(3-(2-(2-methylazetidin-1-yl)-6,7-dihydro-5H-cyclopenta[d]pyrimidin-4-yl)phenyl)thietane 1,1-dioxide]
IC50 (human KHK-C): 32.8 nM
EC50 [1]: 166 nM

Compound: CC12CCC(CC1)N2c1nc2c(c(-c3ccc(C(N)=O)cc3)n1)CCC2 [Example 398, 4-(2-(-1-methyl-7-azabicyclo[2.2.1]heptan-7-yl)-6,7-dihydro-5H-cyclopenta[d]pyrimidin-4-yl)benzamide]
IC50 (human KHK-C): > 5000 nM
EC50 [1]: > 5000 nM

Compound: C[C@H]1CCCN1c1nc2c(c(-c3ccc(C(N)=O)cc3)n1)CCC2 [Example 403, (S)-4-(2-(2-methylpyrrolidin-1-yl)-6,7-dihydro-5H-cyclopenta[d]pyrimidin-4-yl)benzamide]
IC50 (human KHK-C): 218 nM
EC50 [1]: 242 nM

Compound: C[C@@H]1CCCN1c1nc2c(c(-c3ccc(C(N)=O)cc3)n1)CCC2 [Example 404, (R)-4-(2-(2-methylpyrrolidin-1-yl)-6,7-dihydro-5H-cyclopenta[d]pyrimidin-4-yl)benzamide]
IC50 (human KHK-C): > 5000 nM
EC50 [1]: > 5000 nM

Compound: NC(=O)c1ccc(-c2nc(N3CCC3)nc3c2CCC3)cc1 [Example 405, 4-(2-(azetidin-1-yl)-6,7-dihydro-5H-cyclopenta[d]pyrimidin-4-yl)benzamide]
IC50 (human KHK-C): 2470 nM
EC50 [1]: 4770 nM

Compound: CSCC1CCN1c1nc2c(c(-c3ccc(C(N)=O)cc3)n1)CCC2 (centres unmarked) [Example 415, 4-(2-(2-((methylthio)methyl)azetidin-1-yl)-6,7-dihydro-5H-cyclopenta[d]pyrimidin-4-yl)benzamide]
IC50 (human KHK-C): > 5000 nM
EC50 [1]: > 5000 nM

Compound: C[C@H]1CCN1c1nc2c(c(-c3cccc(C4=CS(=O)(=O)C4)c3)n1)CCC2 [Example 420, (S)-3-(3-(2-(2-methylazetidin-1-yl)-6,7-dihydro-5H-cyclopenta[d]pyrimidin-4-yl)phenyl)-2H-thiete 1,1-dioxide]
IC50 (human KHK-C): 61.8 nM
EC50 [1]: 382 nM

Compound: C[C@H]1CCN1c1nc2c(c(-c3ccc4c(c3)CS(=O)(=O)C4)n1)CCC2 [Example 422, (S)-5-(2-(2-methylazetidin-1-yl)-6,7-dihydro-5H-cyclopenta[d]pyrimidin-4-yl)-1,3-dihydrobenzo[c]thiophene 2,2-dioxide]
IC50 (human KHK-C): 95 nM
EC50 [1]: 240 nM

Compound: C[C@H]1CCN1c1nc2c(c(-c3cccc([C@@H]4[C@@H](C(=O)O)C4(C)C)c3)n1)CCC2 [Example 435, (1R,3R)-2,2-dimethyl-3-(3-(2-((S)-2-methylazetidin-1-yl)-6,7-dihydro-5H-cyclopenta[d]pyrimidin-4-yl)phenyl)cyclopropane-1-carboxylic acid]
IC50 (human KHK-C): 5.4 nM
EC50 [1]: 78.4 nM

Compound: CC(C)C[C@H]1C(F)CN1c1nc2c(c(-c3ccc(C(N)=O)cc3)n1)CCC2 (stereo partly drawn) [Example 437, 4-[2-[(2S)-3-fluoro-2-isobutyl-azetidin-1-yl]-6,7-dihydro-5H-cyclopenta[d]pyrimidin-4-yl]benzamide]
IC50 (human KHK-C): > 5000 nM
EC50 [1]: > 5000 nM

Compound: C[C@@H](OCc1ccccc1)[C@H]1C(O)CN1c1nc2c(c(-c3ccc(C(N)=O)cc3)n1)CCC2 (stereo partly drawn) [Example 438, 4-[2-[(2R)-2-[(1R)-1-benzyloxyethyl]-3-hydroxy-azetidin-1-yl]-6,7-dihydro-5H-cyclopenta[d]pyrimidin-4-yl]benzamide]
IC50 (human KHK-C): > 5000 nM
EC50 [1]: > 5000 nM

Compound: CS(=O)(=O)NC[C@H]1CCN1c1nc2c(c(-c3ccc(C(N)=O)cc3)n1)CCC2 [Example 457, 4-[2-[(2R)-2-(methanesulfonamidomethyl)azetidin-1-yl]-6,7-dihydro-5H-cyclopenta[d]pyrimidin-4-yl]benzamide]
IC50 (human KHK-C): 954 nM
EC50 [1]: > 5000 nM

The remaining lines, values ahead:

IC50 (human KHK-C; ADP-Glo): 27.4 nM
EC50 [1]: 177 nM
Compound: C[C@@H]1COc2cc(-c3nc(N4C[C@@H](O)[C@@H]4C)nc4c3CCC4(F)F)ccc2C(=O)N1 [Example 180, (R)-8-(7,7-difluoro-2-((2S,3R)-3-hydroxy-2-methylazetidin-1-yl)-6,7-dihydro-5H-cyclopenta[d]pyrimidin-4-yl)-3-methyl-3,4-dihydrobenzo[f][1,4]oxazepin-5(2H)-one]

IC50 (human KHK-C; ADP-Glo): 11 nM
EC50 [1]: 579 nM
Compound: CC(=O)Nc1cc(-c2nc(N3C[C@@H](O)[C@@H]3C)nc3c2CCC3(F)F)ccc1C(N)=O [Example 181, 2-acetamido-4-(7,7-difluoro-2-((2S,3R)-3-hydroxy-2-methylazetidin-1-yl)-6,7-dihydro-5H-cyclopenta[d]pyrimidin-4-yl)benzamide]

IC50 (human KHK-C; ADP-Glo): 21.3 nM
EC50 [1]: 89.1 nM
Compound: C[C@H]1[C@H](O)CN1c1nc(-c2ccc(C(N)=O)c(OC(F)(F)F)c2)c2c(n1)C(F)(F)CC2 [Example 183, 4-(7,7-difluoro-2-((2S,3R)-3-hydroxy-2-methylazetidin-1-yl)-6,7-dihydro-5H-cyclopenta[d]pyrimidin-4-yl)-2-(trifluoromethoxy)benzamide]

IC50 (human KHK-C): 329 nM
EC50 [1]: > 5000 nM
Compound: C[C@H]1CCN1c1nc2c(c(-c3nc4ccc(C(=O)O)cc4n3C)n1)CCC2 [Example 395, 3-methyl-2-[2-[(2S)-2-methylazetidin-1-yl]-6,7-dihydro-5H-cyclopenta[d]pyrimidin-4-yl]benzimidazole-5-carboxylic acid]

IC50 (human KHK-C): 74.3 nM
EC50 [1]: 138 nM
Compound: C[C@H]1CCN1c1nc2c(c(-c3cccc(S(C)(=O)=O)c3)n1)CCC2 [Example 399, (S)-2-(2-methylazetidin-1-yl)-4-(3-(methylsulfonyl)phenyl)-6,7-dihydro-5H-cyclopenta[d]pyrimidine]

IC50 (human KHK-C): 3760 nM
EC50 [1]: 1590 nM
Compound: NC(=O)c1ccc(-c2nc(N3CCCC34CC4)nc3c2CCC3)cc1 [Example 402, 4-(2-(4-azaspiro[2.4]heptan-4-yl)-6,7-dihydro-5H-cyclopenta[d]pyrimidin-4-yl)benzamide]

IC50 (human KHK-C): > 5000 nM
EC50 [1]: > 5000 nM
Compound: NC(=O)c1ccc(-c2nc(N3CCCC3=O)nc3c2CCC3)cc1 [Example 418, 4-(2-(2-oxopyrrolidin-1-yl)-6,7-dihydro-5H-cyclopenta[d]pyrimidin-4-yl)benzamide]

IC50 (human KHK-C): 67 nM
EC50 [1]: 297 nM
Compound: C[C@H]1CCN1c1nc2c(c(-c3cccc(C4CS(=O)(=O)C4)c3)n1)CCC2 [Example 421, (S)-3-(3-(2-(2-methylazetidin-1-yl)-6,7-dihydro-5H-cyclopenta[d]pyrimidin-4-yl)phenyl)thietane 1,1-dioxide]

IC50 (human KHK-C): 2730 nM
EC50 [1]: 2940 nM
Compound: CC(C)(O)[C@H]1CCN1c1nc2c(c(-c3ccc(C(N)=O)cc3)n1)CCC2 [Example 436, 4-[2-[(2R)-2-(1-hydroxy-1-methyl-ethyl)azetidin-1-yl]-6,7-dihydro-5H-cyclopenta[d]pyrimidin-4-yl]benzamide]

IC50 (human KHK-C): 1580 nM
EC50 [1]: 2730 nM
Compound: NC(=O)c1ccc(-c2nc(N3CC[C@@H]3C(=O)O)nc3c2CCC3)cc1 [Example 442, (2R)-1-[4-(4-carbamoylphenyl)-6,7-dihydro-5H-cyclopenta[d]pyrimidin-2-yl]azetidine-2-carboxylic acid]

IC50 (human KHK-C): 4.2 nM
EC50 [1]: 53.8 nM
Compound: C[C@H]1CCN1c1nc2c(c(-c3cc(Cl)cc([C@H]4C[C@@H]4C(=O)O)c3)n1)CCC2 [Example 443, (1S,2S)-2-[3-chloro-5-[2-[(2S)-2-methylazetidin-1-yl]-6,7-dihydro-5H-cyclopenta[d]pyrimidin-4-yl]phenyl]cyclopropanecarboxylic acid]

IC50 (human KHK-C): > 5000 nM
EC50 [1]: > 5000 nM
Compound: C[C@H]1[C@H](O)CN1c1nc2c(c(-c3ccc(C(N)=O)cc3)n1)CC(F)(F)CC2 [Example 444, 4-(6,6-difluoro-2-((2S,3R)-3-hydroxy-2-methylazetidin-1-yl)-5,6,7,8-tetrahydroquinazolin-4-yl)benzamide]

IC50 (human KHK-C): 48.6 nM
EC50 [1]: 238 nM
Compound: C[C@H]1[C@H](O)CN1c1nc(-c2ccc3c(c2)OCCNS3(=O)=O)c2c(n1)C(F)(F)CC2 [Example 500]

IC50 (human KHK-C): 212 nM
EC50 [1]: 597 nM
Compound: CC1CCC1c1nc2c(c(-c3ccc(C(N)=O)cc3)n1)CCC2 (centres unmarked) [Example 501, 4-(2-(2-methylcyclobutyl)-6,7-dihydro-5H-cyclopenta[d]pyrimidin-4-yl)benzamide]

IC50 (human KHK-C): 768 nM
EC50 [1]: 2000 nM
Compound: CC1(c2nc3c(c(-c4ccc(C(N)=O)cc4)n2)CCC3)CCC1 [Example 502, 4-(2-(1-methylcyclobutyl)-6,7-dihydro-5H-cyclopenta[d]pyrimidin-4-yl)benzamide]

IC50 (human KHK-C): 5 nM
EC50 [1]: 26.7 nM
Compound: C[C@H]1[C@H](O)CN1c1nc(-c2ccc(C3(N)COC3)c(F)c2)c2c(n1)C(F)(F)CC2 [Example 503, (2S,3R)-1-(4-(4-(3-aminooxetan-3-yl)-3-fluorophenyl)-7,7-difluoro-6,7-dihydro-5H-cyclopenta[d]pyrimidin-2-yl)-2-methylazetidin-3-ol]
